The source of these data is patent US20230181472A1, “PROCESS OF MAKING IVABRADINE HYDROCHLORIDE DRUG PRODUCT” (Amgen Inc., priority 2018, published 2023).

Where a name gives a salt, the structure may show the parent alone.

A short description of this data set: FT-Raman peak width (FWHM) at 705 cm^−1 as a measure of amorphous ivabradine hydrochloride. It is filed as physicochemical. Conditions: peak heights normalized at 705 cm^−1, broader peak = more amorphous content. The text has this: During characterization of the ivabradine hydrochloride chrystalline forms, Fourier Transform Raman Spectroscopy was used to evaluate different peak shapes. A Thermo Scientific Nicolet NXR FT-Raman equipped with liquid nitrogen cooled germanium (Ge) detector (Thermo Scientific) was used for FT-Raman signal collection. Peak broadening was most defined at a Raman shift of 705 cm^−1. The peak heights were normalized at 705 cm^−1 and the width of the peak was characterized as full width at half maximum (FWHM). Table 3 highlights the FWHM of pure tetrahydrate and amorphous drug substance with an approximate doubling of peak width for purely amorphous ivabradine hydrochloride. […] Modifying the process conditions as described herein produced FWHM values of 10.3 and 9.6 cm^−1 for the 5 mg and 7.5 mg drug products respectively showing the significant reduction in the amount of amorphous ivabradine hydrochloride present in the drug product.

Turning to `COc1cc2c(cc1OC)CC(=O)N(CCCN(C)C[C@H]1Cc3cc(OC)c(OC)cc31)CC2` [Ivabradine hydrochloride amorphous (pure)], the “FWHM (cm^−1) of 705 cm^−1 peak” value came to 16.3 cm⁻¹.
With `COc1cc2c(cc1OC)CC(=O)N(CCCN(C)C[C@H]1Cc3cc(OC)c(OC)cc31)CC2` [Ivabradine hydrochloride tetrahydrate (pure)], the “FWHM (cm^−1) of 705 cm^−1 peak” value is 8.4 cm⁻¹.
